In patent US5021423A, “Mitomycin derivatives and intermediates therefor” (Kyowa Hakko Kogyo Kabushiki Kaisha, priority 1988, dated 1991):
≈ marks a conversion by molar mass, not a printed value.

Assays:
HeLa S3 cells = assay: Inhibition test against the growth of HeLa S3 cells; format: cell-based; details: Homo sapiens, 72 hours, neutral red, read-out: IC50 (growth inhibition by 50%)
Protocol: Inhibition test against the growth of HeLa S3 cells
Each 0.1 ml of MEM medium containing 10% foetal calf serum and 2 mM glutamine, which contained 3×10^4 HeLa S3 cells per ml, was put into each well of a 96 well microtitre plate. Without any pre-treatment, the cells were cultured overnight at a temperature of 37° C. in a CO2 incubator.
On each occasion, 0.05 ml of a test sample which had been suitably diluted was added to the well. After treating with the test compound for 72 hours, the supernatant was removed. After washing once with a PBS (-), a fresh medium (0.1 ml) was added to each well, followed by incubating at a temperature of 37° C. for 2 hours in the incubator.
After removal of the supernatant, 0.1 ml of a medium containing neutral red (0.02%) was added to each well. The cells were dyed by incubating at a temperature of 37° C. for one hour in the incubator. After removal of the supernatant, followed by washing once with a physiological solution of sodium chloride, the dyestuff was removed from each sample by extraction using a mixture of 0.001N hydrochloric acid and 30% ethanol. A microplate reader was used to measure the absorption at 550 nm. By comparing the absorption of untreated cells with the absorption of the cells treated with the test compound having a pre-determined concentration, a concentration of the test compound capable of inhibiting the growth of the cells by 50% was calculated and designated as IC50.

Sarcoma 180 solid tumour = assay: Effect against Sarcoma 180 solid tumour; format: in vivo, mice of ddy strain; details: Mus musculus, Sarcoma-180, iv, 168 h; male ddy mice, tail vein injection 24 hours after implantation; tumour volume 7 days after implantation; read-out: ED50 (dose reducing the volume of Sarcoma 180 solid tumours by 50%)
Protocol: (1) Effect aginast Sarcoma 180 solid tumour:
5×10^6 cells of Sarcoma 180 solid tumour cells were abdominally implanted into male mice of ddy strain. 7 days after this, ascites cells were sampled. The ascites cells were washed once with a sterilized physiological solution of sodium chloride and were used to prepare a cell suspension containing 5×10^7 cells per ml. 0.1 ml of the cell suspension was subcutaneously implanted into the right armpit of a male mouse (ddy strain; body weight 20±2 g). 24 hours after the implantation of the tumour cells, the test compound dissolved in a physiological solution of sodium chloride containing Tween 80, was injected into the tail vein of each mouse of a group consisting of 5 animals at a dose of 0.1-0.2 ml. The anti-tumour activity of the test sample was determined as follows:
7 days after the implantation, the major axis (a) and the minor axis (b) of the tumour were measured to calculate a value of "a×b^2 /2" which corresponds to the volume of the tumour. The anti-tumour activity was expressed by T/C viz. the ratio of the volume of the tumours (T) of the group of animals administered with the test compound to the corresponding volume of tumours (C) of the untreated animals.
(2) Determination of ED50 :
The term ED50 denotes the administered amount needed for reducing the volume of Sarcoma 180 solid tumours in the animals by 50% on the basis of the corresponding volume of Sarcoma 180 solid tumours in the untreated animals. On graph paper, the value T/C was indicated by an arithmetic scale on the longitudinal axis and the administered amount of test compound was indicated by a logarithmic scale on the lateral axis. A straight line indicating the relationship between the dose and T/C was determined by the least squares method from which a dose corresponding to T/C of 0.5 was obtained.

Acute toxicity = details: mouse, in vivo; ddy mice, single intravenous administration, observed for 14 days, Behrens Korber's method
Protocol: Each animal of the test group consisting of 5 ddy mice was once administered intravenously with a test compound. […] The LD50 was determined by the Behrens Korber's method.

[1] = system: Streptococcus faecium: Enterococcus faecium ATTC 10541; assay: Anti-bacterial activity, agar dilution method at pH 7.0 (SF); format: cell-based; details: pH 7, read-out: minimum growth inhibitory concentration, SF
Text: (§1) In this table, the microorganisms are abbreviated as follows:
SF: Streptococcus faecium: Enterococcus faecium

[2] = system: Klebsiella pneumoniae ATCC 10031; assay: Anti-bacterial activity, agar dilution method at pH 7.0 (KP); format: cell-based; details: ATCC10031, read-out: minimum growth inhibitory concentration, KP
Text: as §1
KP: Klebsiella pneumoniae ATCC 10031

[3] = system: Staphylococcus aureus ATCC 6538P; assay: Anti-bacterial activity, agar dilution method at pH 7.0 (SA); format: cell-based; details: ATCC6538P, read-out: minimum growth inhibitory concentration, SA
Text: as §1
SA: Staphylococcus aureus ATCC 6538P

[4] = system: Proteus vulgaris ATCC 6897; assay: Anti-bacterial activity, agar dilution method at pH 7.0 (PV); format: cell-based; details: ATCC6897, read-out: minimum growth inhibitory concentration, PV
Text: as §1
PV: Proteus vulgaris ATCC 6897

Row | SMILES | IC50 (HeLa S3 cells) [µg/mL] | ED50 (Sarcoma 180 solid tumour) [mg/kg] | LD50 at 336 h (Acute toxicity) [mg/kg] | MIC [1] [µg/mL] | MIC [2] [µg/mL] | MIC [3] [µg/mL] | MIC [4] [µg/mL]
1 | CCCCCCCC(=O)OC1=C(C)C2(OCCO2)C(=O)C2=C1N1C[C@@H]3N[C@@H]3[C@]1(OC)[C@@H]2COC(N)=O [Compound 11] | 0.01 (≈ 0.0198 µM) | 0.77 | 3.1 | – | – | – | –
2 | CCCCC/C=C\C/C=C\CCCCCCCC(=O)OC1=C(C)C2(OCCO2)C(=O)C2=C1N1C[C@@H]3N[C@@H]3[C@]1(OC)[C@@H]2COC(N)=O [Compound 10] | 0.0026 (≈ 0.00405 µM) | 1.9 | 4.2 | – | – | – | –
3 | CO[C@@]12[C@H](COC(N)=O)C3=C(C(OC(=O)C(C)(C)C)=C(C)C4(OCCO4)C3=O)N1C[C@@H]1N[C@@H]12 [Compound 12] | 0.53 (≈ 1.14 µM) | – | – | – | – | – | –
4 | COC1=C(C)C2(OCCO2)C(=O)C2=C1N1C[C@@H]3N[C@@H]3[C@]1(OC)[C@@H]2COC(N)=O [Compound 7] | 0.085 (≈ 0.216 µM) | – | – | 10 (≈ 25.4 µM) | 2.5 (≈ 6.35 µM) | 5 (≈ 12.7 µM) | 10 (≈ 25.4 µM)
5 | CO[C@@]12[C@H](COC(N)=O)C3=C(C(OC(=O)c4ccccc4)=C(C)C4(OCCO4)C3=O)N1C[C@@H]1N[C@@H]12 [Compound 5] | 0.013 (≈ 0.0269 µM) | – | – | 1.3 (≈ 2.69 µM) | 1.3 (≈ 2.69 µM) | 0.31 (≈ 0.641 µM) | 0.63 (≈ 1.3 µM)
6 | CO[C@@]12[C@H](COC(N)=O)C3=C(C(OC(C)=O)=C(C)C4(OCCO4)C3=O)N1C[C@@H]1N[C@@H]12 [Compound 2] | 0.007 (≈ 0.0166 µM) | – | – | 1.3 (≈ 3.08 µM) | 0.16 (≈ 0.38 µM) | 0.63 (≈ 1.49 µM) | 1.3 (≈ 3.08 µM)
7 | CC(=O)OC1=C(C)C2(OCCO2)C(=O)C2=C1N1C[C@H]3[C@H](N3C)[C@]1(O)[C@H]2COC(N)=O (some centres unmarked) [Compound 3] | – | 9.9 | 11.3 | 50 (≈ 119 µM) | 6.3 (≈ 14.9 µM) | 13 (≈ 30.8 µM) | 13 (≈ 30.8 µM)
8 | CCCCCCCCCCCC(=O)OC1=C(C)C2(OCCO2)C(=O)C2=C1N1C[C@@H]3N[C@@H]3[C@]1(OC)[C@@H]2COC(N)=O [Compound 6] | 0.0019 (≈ 0.00338 µM) | 1.2 | 3 | 2.5 (≈ 4.45 µM) | 5 (≈ 8.9 µM) | 0.63 (≈ 1.12 µM) | 2.5 (≈ 4.45 µM)
